# Measured values from ChEMBL document CHEMBL5303765, “Data for DCP probe BAY-7081” (2023).
# Active and inactive are the calls of the source. The rule behind the calls is not given here.
# Assays:
# [1] = molecular target: Alpha-1D adrenergic receptor (Homo sapiens) (UniProt P25100); conditions: Compound concentration 10.0 uM
# [2] = molecular target: Dual specificity tyrosine-phosphorylation-regulated kinase 1A (Homo sapiens) (UniProt Q13627); assay: DYRK1A SGC Tm panel (DSF); conditions: for ΔTm: Compound concentration 10.0 uM
# [3] = molecular target: Death-associated protein kinase 3 (Homo sapiens) (UniProt O43293); assay: DAPK3 SGC Tm panel (DSF); conditions: for ΔTm: Compound concentration 10.0 uM
# [4] = molecular target: STE20-like serine/threonine-protein kinase (Homo sapiens) (UniProt Q9H2G2); assay: SLK SGC Tm panel (DSF); conditions: for ΔTm: Compound concentration 10.0 uM
# [5] = molecular target: Ephrin type-A receptor 5 (Homo sapiens) (UniProt P54756); assay: EPHA5 SGC Tm panel (DSF); conditions: for ΔTm: Compound concentration 10.0 uM
# [6] = molecular target: Cyclin-dependent kinase 16 (Homo sapiens) (UniProt Q00536); assay: PCTK1 SGC Tm panel (DSF); conditions: for ΔTm: Compound concentration 10.0 uM
# [7] = molecular target: 5-hydroxytryptamine receptor 5A (Homo sapiens) (UniProt P47898); conditions: Compound concentration 10.0 uM
# [8] = molecular target: T1, Mitogen-activated protein kinase 15 (Homo sapiens) (UniProt Q8TD08); assay: MAPK15 SGC Tm panel (DSF); conditions: for ΔTm: Compound concentration 10.0 uM
# T1 sequence (whole entry): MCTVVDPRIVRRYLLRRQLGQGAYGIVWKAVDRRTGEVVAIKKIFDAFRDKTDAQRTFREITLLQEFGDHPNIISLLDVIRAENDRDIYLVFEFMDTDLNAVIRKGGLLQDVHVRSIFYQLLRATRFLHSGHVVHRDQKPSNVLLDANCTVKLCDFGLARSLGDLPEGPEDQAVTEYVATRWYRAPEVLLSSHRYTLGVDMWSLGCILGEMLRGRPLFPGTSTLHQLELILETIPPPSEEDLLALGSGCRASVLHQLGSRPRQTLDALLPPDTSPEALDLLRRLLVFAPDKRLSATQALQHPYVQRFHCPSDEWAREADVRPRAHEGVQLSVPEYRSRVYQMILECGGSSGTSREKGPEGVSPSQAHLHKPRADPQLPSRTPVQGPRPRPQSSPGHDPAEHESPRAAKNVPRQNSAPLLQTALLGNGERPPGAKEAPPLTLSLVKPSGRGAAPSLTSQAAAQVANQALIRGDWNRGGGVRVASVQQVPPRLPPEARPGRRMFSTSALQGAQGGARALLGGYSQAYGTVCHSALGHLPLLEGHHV
# [9] = molecular target: T2, Serine/threonine-protein kinase PLK4 (Homo sapiens) (UniProt O00444); assay: PLK4 SGC Tm panel (DSF); conditions: for ΔTm: Compound concentration 10.0 uM
# T2 sequence (whole entry): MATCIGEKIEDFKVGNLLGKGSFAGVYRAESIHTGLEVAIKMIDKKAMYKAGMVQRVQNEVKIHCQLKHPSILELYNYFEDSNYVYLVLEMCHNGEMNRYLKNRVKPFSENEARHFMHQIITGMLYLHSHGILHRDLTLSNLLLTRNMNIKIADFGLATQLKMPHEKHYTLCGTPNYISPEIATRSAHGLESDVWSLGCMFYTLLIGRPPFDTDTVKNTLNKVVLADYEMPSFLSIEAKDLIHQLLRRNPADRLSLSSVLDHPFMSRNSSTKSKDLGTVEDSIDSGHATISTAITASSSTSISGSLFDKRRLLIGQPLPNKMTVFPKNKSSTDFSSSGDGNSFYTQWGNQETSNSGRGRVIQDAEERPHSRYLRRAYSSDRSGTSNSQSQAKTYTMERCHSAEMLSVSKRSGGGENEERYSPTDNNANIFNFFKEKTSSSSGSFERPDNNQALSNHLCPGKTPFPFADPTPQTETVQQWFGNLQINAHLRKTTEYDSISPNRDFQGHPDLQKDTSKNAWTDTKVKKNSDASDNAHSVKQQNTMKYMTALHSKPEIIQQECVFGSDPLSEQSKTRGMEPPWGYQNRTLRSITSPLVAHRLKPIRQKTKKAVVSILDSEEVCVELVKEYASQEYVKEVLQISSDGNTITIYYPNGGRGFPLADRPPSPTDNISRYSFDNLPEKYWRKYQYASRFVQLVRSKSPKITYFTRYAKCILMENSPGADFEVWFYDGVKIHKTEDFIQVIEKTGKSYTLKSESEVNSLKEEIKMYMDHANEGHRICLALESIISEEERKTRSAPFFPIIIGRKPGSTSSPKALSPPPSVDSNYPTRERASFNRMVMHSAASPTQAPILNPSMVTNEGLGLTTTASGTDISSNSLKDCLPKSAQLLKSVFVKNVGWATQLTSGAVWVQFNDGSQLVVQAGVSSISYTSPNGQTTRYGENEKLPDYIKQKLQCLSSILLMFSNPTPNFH
# [10] = molecular target: Calcium/calmodulin-dependent protein kinase type II subunit delta (Homo sapiens) (UniProt Q13557); assay: CAMK2D SGC Tm panel (DSF); conditions: for ΔTm: Compound concentration 10.0 uM
# [11] = molecular target: MAP kinase-activated protein kinase 2 (Homo sapiens) (UniProt P49137); assay: MAPKAPK2 SGC Tm panel (DSF); conditions: for ΔTm: Compound concentration 10.0 uM
# [12] = molecular target: High affinity cGMP-specific 3',5'-cyclic phosphodiesterase 9A (Homo sapiens, UniProt O76083); assay: 3H-cAMP and 3H-cGMP Scintillation Proximity Assay (PDE9A)
# [13] = molecular target: SRSF protein kinase 3 (Homo sapiens) (UniProt Q9UPE1); assay: MSSK1 SGC Tm panel (DSF); conditions: for ΔTm: Compound concentration 10.0 uM
# [14] = molecular target: Dual specificity protein kinase CLK1 (Homo sapiens) (UniProt P49759); assay: CLK1 SGC Tm panel (DSF); conditions: for ΔTm: Compound concentration 10.0 uM
# [15] = molecular target: Serine/threonine-protein kinase pim-1 (Homo sapiens) (UniProt P11309); assay: PIM1 SGC Tm panel (DSF); conditions: for ΔTm: Compound concentration 10.0 uM
# [16] = molecular target: 5-hydroxytryptamine receptor 2B (Homo sapiens) (UniProt P41595); conditions: Compound concentration 10.0 uM
# [17] = molecular target: Muscarinic acetylcholine receptor M3 (Homo sapiens) (UniProt P20309); conditions: Compound concentration 10.0 uM
# [18] = molecular target: AP2-associated protein kinase 1 (Homo sapiens) (UniProt Q2M2I8); assay: AAK1 SGC Tm panel (DSF); conditions: for ΔTm: Compound concentration 10.0 uM
# Chain of AP2-associated protein kinase 1 (Homo sapiens) (Q2M2I8 whole entry, looked up): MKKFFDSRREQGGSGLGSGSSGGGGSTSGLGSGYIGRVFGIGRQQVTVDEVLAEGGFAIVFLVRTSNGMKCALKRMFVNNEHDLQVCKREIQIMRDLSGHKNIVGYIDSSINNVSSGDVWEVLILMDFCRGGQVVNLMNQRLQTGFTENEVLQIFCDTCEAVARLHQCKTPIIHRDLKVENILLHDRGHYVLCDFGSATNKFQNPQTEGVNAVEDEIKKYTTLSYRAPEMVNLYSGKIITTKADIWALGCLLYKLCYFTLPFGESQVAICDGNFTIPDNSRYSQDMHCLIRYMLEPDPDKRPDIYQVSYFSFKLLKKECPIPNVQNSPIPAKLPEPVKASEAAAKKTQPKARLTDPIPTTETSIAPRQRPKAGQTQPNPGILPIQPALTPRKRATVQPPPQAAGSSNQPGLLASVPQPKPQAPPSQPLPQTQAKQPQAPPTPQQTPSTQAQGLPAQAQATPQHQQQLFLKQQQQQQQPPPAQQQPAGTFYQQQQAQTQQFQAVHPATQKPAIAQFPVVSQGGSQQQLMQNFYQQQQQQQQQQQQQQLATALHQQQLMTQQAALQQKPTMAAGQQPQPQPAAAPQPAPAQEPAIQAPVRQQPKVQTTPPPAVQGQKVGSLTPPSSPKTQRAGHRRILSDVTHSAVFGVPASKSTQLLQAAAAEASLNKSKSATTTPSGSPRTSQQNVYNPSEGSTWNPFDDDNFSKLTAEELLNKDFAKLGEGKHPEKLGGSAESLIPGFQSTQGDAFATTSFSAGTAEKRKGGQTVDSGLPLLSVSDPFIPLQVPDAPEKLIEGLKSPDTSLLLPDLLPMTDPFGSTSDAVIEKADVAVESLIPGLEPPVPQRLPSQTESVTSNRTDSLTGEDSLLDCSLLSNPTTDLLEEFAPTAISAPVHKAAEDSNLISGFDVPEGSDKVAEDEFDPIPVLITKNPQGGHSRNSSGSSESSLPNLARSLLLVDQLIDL
# Chain of Calcium/calmodulin-dependent protein kinase type II subunit delta (Homo sapiens) (Q13557 whole entry): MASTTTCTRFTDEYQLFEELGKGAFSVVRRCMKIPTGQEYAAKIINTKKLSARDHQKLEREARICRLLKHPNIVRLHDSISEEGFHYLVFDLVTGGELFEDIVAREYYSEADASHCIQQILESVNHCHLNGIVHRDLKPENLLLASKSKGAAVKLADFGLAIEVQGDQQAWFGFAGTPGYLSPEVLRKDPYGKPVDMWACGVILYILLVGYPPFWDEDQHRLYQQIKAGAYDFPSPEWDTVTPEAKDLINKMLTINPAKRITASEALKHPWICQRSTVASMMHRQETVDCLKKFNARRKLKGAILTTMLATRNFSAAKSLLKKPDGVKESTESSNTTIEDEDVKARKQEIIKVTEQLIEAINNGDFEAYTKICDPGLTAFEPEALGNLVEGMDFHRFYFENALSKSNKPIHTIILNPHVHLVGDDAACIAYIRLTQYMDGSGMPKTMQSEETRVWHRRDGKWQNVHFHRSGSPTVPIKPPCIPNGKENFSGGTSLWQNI
# Chain of Dual specificity protein kinase CLK1 (Homo sapiens) (P49759 whole entry, looked up): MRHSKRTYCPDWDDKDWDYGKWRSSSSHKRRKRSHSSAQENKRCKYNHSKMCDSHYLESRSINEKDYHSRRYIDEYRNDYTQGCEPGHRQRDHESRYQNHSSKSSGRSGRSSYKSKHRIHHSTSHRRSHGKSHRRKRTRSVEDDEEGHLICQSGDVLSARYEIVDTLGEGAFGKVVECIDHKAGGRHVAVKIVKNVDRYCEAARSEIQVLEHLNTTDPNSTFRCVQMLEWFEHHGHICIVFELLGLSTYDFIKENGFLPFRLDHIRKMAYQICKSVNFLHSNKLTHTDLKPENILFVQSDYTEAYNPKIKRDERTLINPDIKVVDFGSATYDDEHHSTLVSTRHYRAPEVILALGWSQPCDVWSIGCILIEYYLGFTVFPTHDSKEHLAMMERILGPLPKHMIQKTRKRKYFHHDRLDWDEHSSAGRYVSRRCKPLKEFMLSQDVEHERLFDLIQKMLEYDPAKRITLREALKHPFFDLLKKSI
# Chain of Death-associated protein kinase 3 (Homo sapiens) (O43293 whole entry, looked up): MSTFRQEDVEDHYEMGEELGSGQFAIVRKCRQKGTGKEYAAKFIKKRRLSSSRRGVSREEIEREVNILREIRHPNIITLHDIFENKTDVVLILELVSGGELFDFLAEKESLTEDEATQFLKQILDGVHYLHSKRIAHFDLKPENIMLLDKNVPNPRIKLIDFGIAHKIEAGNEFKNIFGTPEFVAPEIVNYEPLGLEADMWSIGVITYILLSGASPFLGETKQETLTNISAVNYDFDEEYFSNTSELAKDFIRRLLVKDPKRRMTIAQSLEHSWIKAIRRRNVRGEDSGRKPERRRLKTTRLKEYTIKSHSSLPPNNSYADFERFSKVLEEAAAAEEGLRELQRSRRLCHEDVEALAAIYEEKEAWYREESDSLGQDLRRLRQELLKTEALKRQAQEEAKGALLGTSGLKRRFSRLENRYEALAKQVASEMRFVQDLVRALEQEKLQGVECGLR
# Chain of SRSF protein kinase 3 (Homo sapiens) (Q9UPE1 whole entry): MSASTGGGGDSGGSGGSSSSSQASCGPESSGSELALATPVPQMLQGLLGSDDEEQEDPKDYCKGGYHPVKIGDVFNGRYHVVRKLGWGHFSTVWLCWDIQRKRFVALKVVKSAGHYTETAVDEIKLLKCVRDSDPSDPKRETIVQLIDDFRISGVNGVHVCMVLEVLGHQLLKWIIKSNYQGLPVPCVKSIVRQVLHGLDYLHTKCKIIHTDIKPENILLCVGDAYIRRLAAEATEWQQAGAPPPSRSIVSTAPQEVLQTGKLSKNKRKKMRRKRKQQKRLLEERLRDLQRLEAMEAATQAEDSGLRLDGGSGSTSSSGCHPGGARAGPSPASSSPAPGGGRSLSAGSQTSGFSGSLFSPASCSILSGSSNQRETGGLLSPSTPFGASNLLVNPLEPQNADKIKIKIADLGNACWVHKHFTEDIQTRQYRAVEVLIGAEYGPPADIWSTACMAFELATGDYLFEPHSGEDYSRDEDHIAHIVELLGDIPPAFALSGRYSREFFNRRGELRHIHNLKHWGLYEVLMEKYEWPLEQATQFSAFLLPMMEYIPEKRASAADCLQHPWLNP
# Chain of Serine/threonine-protein kinase pim-1 (Homo sapiens) (P11309 whole entry, looked up): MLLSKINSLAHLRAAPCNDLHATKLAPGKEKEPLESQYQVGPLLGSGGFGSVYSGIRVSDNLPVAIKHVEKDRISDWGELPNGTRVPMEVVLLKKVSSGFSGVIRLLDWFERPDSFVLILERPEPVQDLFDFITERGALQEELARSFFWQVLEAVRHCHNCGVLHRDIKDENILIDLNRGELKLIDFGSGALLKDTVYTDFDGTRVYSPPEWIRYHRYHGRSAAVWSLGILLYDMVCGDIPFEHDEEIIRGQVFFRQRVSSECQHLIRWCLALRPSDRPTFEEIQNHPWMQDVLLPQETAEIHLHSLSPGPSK
# Chain of 5-hydroxytryptamine receptor 5A (Homo sapiens) (P47898 whole entry): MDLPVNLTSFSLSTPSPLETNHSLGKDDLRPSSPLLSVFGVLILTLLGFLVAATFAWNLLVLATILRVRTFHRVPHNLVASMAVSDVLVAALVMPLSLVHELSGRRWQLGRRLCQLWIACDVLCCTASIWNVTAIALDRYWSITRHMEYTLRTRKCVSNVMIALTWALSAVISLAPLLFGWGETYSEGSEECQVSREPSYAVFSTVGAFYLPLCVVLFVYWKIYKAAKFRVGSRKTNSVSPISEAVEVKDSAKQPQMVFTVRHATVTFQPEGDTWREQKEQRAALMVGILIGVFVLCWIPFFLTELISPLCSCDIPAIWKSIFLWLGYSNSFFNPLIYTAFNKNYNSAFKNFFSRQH
# Chain of Alpha-1D adrenergic receptor (Homo sapiens) (P25100 whole entry): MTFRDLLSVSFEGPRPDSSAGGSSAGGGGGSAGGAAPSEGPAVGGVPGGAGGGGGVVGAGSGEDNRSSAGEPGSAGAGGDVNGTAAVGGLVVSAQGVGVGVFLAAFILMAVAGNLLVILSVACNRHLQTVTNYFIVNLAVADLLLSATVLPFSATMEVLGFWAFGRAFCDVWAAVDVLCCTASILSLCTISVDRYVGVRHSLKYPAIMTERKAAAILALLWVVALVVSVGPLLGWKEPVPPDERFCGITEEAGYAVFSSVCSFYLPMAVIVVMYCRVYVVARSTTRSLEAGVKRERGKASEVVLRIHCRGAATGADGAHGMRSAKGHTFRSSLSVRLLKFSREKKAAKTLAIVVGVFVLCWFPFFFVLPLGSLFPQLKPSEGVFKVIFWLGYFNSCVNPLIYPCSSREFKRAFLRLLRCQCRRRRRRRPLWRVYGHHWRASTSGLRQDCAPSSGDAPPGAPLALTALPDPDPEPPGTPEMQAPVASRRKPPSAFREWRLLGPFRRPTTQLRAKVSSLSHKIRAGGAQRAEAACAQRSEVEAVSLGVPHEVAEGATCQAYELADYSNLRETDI
# Chain of MAP kinase-activated protein kinase 2 (Homo sapiens) (P49137 whole entry, looked up): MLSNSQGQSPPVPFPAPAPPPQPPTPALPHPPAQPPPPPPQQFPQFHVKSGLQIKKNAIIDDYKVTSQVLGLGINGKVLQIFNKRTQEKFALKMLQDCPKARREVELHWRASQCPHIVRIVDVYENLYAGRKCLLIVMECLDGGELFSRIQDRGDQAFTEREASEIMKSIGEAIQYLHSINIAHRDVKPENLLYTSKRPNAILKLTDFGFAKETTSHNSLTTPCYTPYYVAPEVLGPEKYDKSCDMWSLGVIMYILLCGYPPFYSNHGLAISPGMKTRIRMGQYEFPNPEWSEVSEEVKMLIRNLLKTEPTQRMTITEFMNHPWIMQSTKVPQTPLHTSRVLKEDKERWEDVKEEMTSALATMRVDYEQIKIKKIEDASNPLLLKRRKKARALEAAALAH
SMILES,inhibition [1],delta Tm Staurosporine positive control [2],ΔTm [2],delta Tm Staurosporine positive control [3],ΔTm [3],delta Tm Staurosporine positive control [4],ΔTm [4],delta Tm Staurosporine positive control [5],ΔTm [5],delta Tm Staurosporine positive control [6],ΔTm [6],inhibition [7],delta Tm Staurosporine positive control [8],ΔTm [8],delta Tm Staurosporine positive control [9],ΔTm [9],delta Tm Staurosporine positive control [10],ΔTm [10],delta Tm Staurosporine positive control [11],ΔTm [11],other results
CCC[C@H]1CNCc2c1[nH]c(=O)c(C#N)c2N1CCC2(CC1)CC2,0.14%,9.05,-0.256,16.6,0.222,15.4,-0.579,8.04,-0.544,11.2,-0.418,5.53%,16.4,-0.258,19.7,-0.34,18.2,0.118,3.96,-0.289,IC50 [12]: 0.015 µM (active); delta Tm Staurosporine positive control [13]: 4.52; ΔTm [13]: -0.144; delta Tm Staurosporine positive control [14]: 11.4; ΔTm [14]: -0.548; delta Tm Staurosporine positive control [15]: 12.2; ΔTm [15]: -0.108; inhibition [16]: 44.9%; inhibition [17]: -1%; delta Tm Staurosporine positive control [18]: 12.4; ΔTm [18]: -0.482
CCC[C@@H]1CNCc2c1[nH]c(=O)c(C#N)c2N1CCC2(CC1)CC2,-2.05%,9.05,0.743,16.6,0.29,15.4,-1.06,8.04,-0.589,11.2,-0.4,3.9%,16.4,0.0332,19.7,-0.315,18.2,-0.155,3.96,-0.281,IC50 [12]: > 10 µM (not active); delta Tm Staurosporine positive control [13]: 4.52; ΔTm [13]: -0.164; delta Tm Staurosporine positive control [14]: 11.4; ΔTm [14]: -0.372; delta Tm Staurosporine positive control [15]: 12.2; ΔTm [15]: -0.124; inhibition [16]: 33%; inhibition [17]: 3.32%; delta Tm Staurosporine positive control [18]: 12.4; ΔTm [18]: -0.478
